From patent US7820625B2, “UV-induced dermatitis inhibitor and atopic dermatitis inhibitor” (National Institute of Advanced Industrial Science and …, priority 2005, dated 2010) come the findings set out here.

In experiment [1] the test system is BALB/c mice (DNFB-induced dermatitis, auricle skin). Kind of experiment: DNFB-induced dermatitis in mouse earlobes; amount of water evaporation (Tewameter TM300) to evaluate the barrier function of keratin. The class given is in vivo. Here is the method: A 1 mg portion of glycylprolylisoleucylglycylserine (SEQ ID NO: 6) (hereinafter, also referred to as “GPIGS”) (manufactured by AMERICAN PEPTIDE COMPANY, Inc., lot. CC-09-119) was weighed. This GPIGS [SEQ ID NO: 6] was dissolved by the addition of 300 μl of Otsuka distilled water for injection (manufactured by Otsuka Pharmaceutical Co., Ltd., cat. 322134). Then, this solution was mixed with 200 μl of propylene glycol (manufactured by Wako Pure Chemical Industries, Ltd., cat. 161-05006) and 500 μl of ethanol (manufactured by Wako Pure Chemical Industries, Ltd., cat. 057-00456) to prepare 1 mg/ml GPIGS [SEQ ID NO: 6] solution (1).
Seven-week-old mice (produced by Japan SLC. Inc, BALB/c line) were raised for 1 week and acclimatized.
A 10 μl portion (14.5 mg) of […] (manufactured by NACALAI TESQUE, INC., cat. 135-12) (DNFB) was added to 9.7 ml of (acetone:olive oil=3:1) solution to prepare 1.5 mg/ml DNFB solution.
A 25 μl portion of 1.5 mg/ml DNFB solution was applied five times (once a week) to each of the front and back sides of the left and right earlobes of the BALB/c mice (8-week-old).
From one day after the 4th DNFB solution application, 25 μl of the drug solution was applied once a day to each of the front and back sides of the left and right earlobes (in the 5th DNFB solution application, the GPIGS [SEQ ID NO: 6] solution (1) was applied 1 hour before DNFB application). Forty-eight hours after the 5th DNFB solution application, an amount of water evaporation in the auricle surfaces was measured with Tewameter TM300 (manufactured by Courage+Khazaka electronic GmbH.) to evaluate the barrier function of keratin (1-3) (the present invention).
The barrier function of keratin was also evaluated on (1-1) wherein the same procedures aforementioned were performed except that a (acetone:olive oil=3:1) solution was applied instead of the DNFB solution and (1-2) (Comparative Example) wherein the same procedures aforementioned were performed except that a solution containing the GPIGS [SEQ ID NO: 6] solution (1) except for GPIGS [SEQ ID NO: 6] was used.
All the experiments were conducted using five mice.
The data in FIG. 1 are indicated with mean±standard deviation (mean±S.E.). Statistical analysis was conducted by Student's t-test (Stat View J-4.02, Abacus Concepts Inc.). A significant level less than 5% (p<0.05) means that a significant difference is present.

Experiment [2] deals with Hos:HR-1 mice (UVB-irradiated back skin). Kind of experiment: UVB-irradiated mouse back skin; amount of water evaporation (Tewameter TM300) to evaluate the barrier function of keratin. The experiment is classed as in vivo. The following applies: for rate of increase in the total amount of water evaporation from the 1st day to the 10th day after UVB irradiation: 1 mg/ml ointment, increase of Comparative Example (5-2) over non-irradiated (5-1) defined as 100%. The protocol: A GPIGS [SEQ ID NO: 6] solution (1) was prepared in the same way as in Example 1.
Mice used were 10-week-old mice (produced by Japan SLC. Inc, Hos:HR-1 line) raised for 1 week or longer in the breeding room of National Institute of Advanced Industrial Science and Technology and acclimatized.
The backs of the mice fixed under pentobarbital anesthesia were irradiated with 150 mJ/cm^2 UVB for 5 days (once a day) to cause skin damage. A 100 μl portion of the drug solution was applied once a day immediately after UVB irradiation to each of the skin surfaces of the backs. An amount of water evaporation in the skin surfaces of the backs was measured with Tewameter TM300 (manufactured by Courage+Khazaka electronic GmbH.) to evaluate the barrier function of keratin.
All the experiments were conducted using four mice.
The data in FIG. 2 are indicated with mean±standard deviation (mean±S.E.). Statistical analysis was conducted by Student's t-test (Stat View J-4.02, Abacus Concepts Inc.). A significant level less than 5% (p<0.05) means that a significant difference is present. In this context, the open triangle denotes (2-1) without UVB irradiation; x denotes (2-2) (Comparative Example) using a solution containing the GPIGS [SEQ ID NO: 6] solution (1) except for GPIGS [SEQ ID NO: 6]; and the solid diamond denotes Example of the present application (2-3).

[3] abbreviates: 1 mg/ml solution (water/propylene glycol/ethanol), 25 μl once a day on earlobes, 48 h after 5th DNFB application, vehicle control 13.11 (GPIGS experiment), 9.29 (IGS experiment).

Where a SMILES comes first, the peptide text is derived from it. Where no end group is shown, it is not given here.

`CC[C@H](C)[C@H](N)C(=O)NCC(=O)N[C@@H](CO)C(=O)O` [IGS, isoleucylglycylserine] (H-Ile-Gly-Ser-OH): in experiment [1] (setting [3]), the “amount of water evaporation” value was determined as 5.57 g/m^2/hr. For the same molecule, the “rate of increase in the total amount of water evaporation from the 1st day to the 10th day after UVB irradiation” value in experiment [2] is on record as 55.4%.

In the case of “GPIGS [GPIGS, glycylprolylisoleucylglycylserine]”, the “amount of water evaporation” value in experiment [1] (1 mg/ml ointment (3-3), base ointment control 8.42, no DNFB 1.83) came out at 5.23 g/m^2/hr; in experiment [1] (setting [3]), 11.30 g/m^2/hr; in experiment [1] (3 mg/ml ointment (3-4), base ointment control 8.42, no DNFB 1.83), 3.89 g/m^2/hr. Besides, the “barrier function of keratin compared with Example 1” value in experiment [1] (3 mg/ml solution, otherwise as Example 1) is on record as “more excellent barrier function of keratin”. In addition, the “dermatitis of each mouse” value in experiment [1] (ointment (10 mg GPIGS with Hiviswako 104, propylene glycol, diisopropanolamine, gentamycin, water), mice treated as in Examples 1 and 2) is “improvement”. Also, the “rate of increase in the total amount of water evaporation from the 1st day to the 10th day after UVB irradiation” value in experiment [2] was determined as 82.1%. The “amount of water evaporation compared with Comparative Example (2-2)” value in experiment [2] (1 mg/ml solution, 100 μl once a day after 150 mJ/cm^2 UVB, following the fourth day after UVB irradiation) is given as “significantly lower”.
